Where “and” joins values, the source holds several entries; their conditions need not be identical. Identical values can stand only once. Toxic doses and inconclusive results are not listed. Cut-off read from the data, not from the text of the source: active = T/C of 150% or more; inactive = T/C below 125%.
Tested on: L1210 leukemia ip in BDF1 mice, survival T/C
Experiment: NCI In Vivo Anticancer Drug Screen. Data for tumor model L1210 Leukemia (intraperitoneal) in B6D2F1 (BDF1) mice
Settings: endpoint: mean survival time, higher = longer survival
Outline: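 Transplanted-tumor mice were given test agent; controls received vehicle only. Survival readings from the two groups were divided (treated over control).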

[1] = dose: 75.0 mg/kg/injection, schedule: Q01DX009 (ip), vehicle: saline with Tween-80
[2] = dose: 150.0 mg/kg/injection, schedule: Q01DX009 (ip), vehicle: saline with Tween-80
[3] = dose: 12.5 mg/kg/injection, schedule: Q01DX009 (ip), vehicle: Klucel (hydroxypropylcellulose) (HPC)
[4] = dose: 25.0 mg/kg/injection, schedule: Q01DX009 (ip), vehicle: Klucel (hydroxypropylcellulose) (HPC)
[5] = dose: 25.0 mg/kg/injection, schedule: Q04DX003 (ip), vehicle: saline with Tween-80
[6] = dose: 50.0 mg/kg/injection, schedule: Q04DX003 (ip), vehicle: saline with Tween-80
[7] = dose: 100.0 mg/kg/injection, schedule: Q04DX003 (ip), vehicle: saline with Tween-80
[8] = dose: 100.0 mg/kg/injection, schedule: Q01DX009 (ip), vehicle: saline with Tween-80
[9] = dose: 200.0 mg/kg/injection, schedule: Q01DX009 (ip), vehicle: saline with Tween-80
[10] = dose: 100.0 mg/kg/injection, schedule: Q04DX002 (ip), vehicle: Klucel (hydroxypropylcellulose) (HPC)
[11] = dose: 200.0 mg/kg/injection, schedule: Q04DX002 (ip), vehicle: Klucel (hydroxypropylcellulose) (HPC)
[12] = dose: 400.0 mg/kg/injection, schedule: Q04DX002 (ip), vehicle: Klucel (hydroxypropylcellulose) (HPC)
[13] = dose: 100.0 mg/kg/injection, schedule: Q04DX003 (ip), vehicle: saline
[14] = dose: 200.0 mg/kg/injection, schedule: Q04DX003 (ip), vehicle: saline
[15] = dose: 400.0 mg/kg/injection, schedule: Q04DX003 (ip), vehicle: saline
[16] = dose: 200.0 mg/kg/injection, schedule: Q04DX003 (ip), vehicle: saline with Tween-80
[17] = dose: 400.0 mg/kg/injection, schedule: Q04DX003 (ip), vehicle: saline with Tween-80
[18] = dose: 100.0 mg/kg/injection, schedule: Q01DX001 (ip), vehicle: carboxymethylcellulose (CMC)
[19] = dose: 200.0 mg/kg/injection, schedule: Q01DX001 (ip), vehicle: carboxymethylcellulose (CMC)
[20] = dose: 400.0 mg/kg/injection, schedule: Q01DX001 (ip), vehicle: carboxymethylcellulose (CMC)
[21] = dose: 100.0 mg/kg/injection, schedule: Q01DX001 (ip), vehicle: other
[22] = dose: 200.0 mg/kg/injection, schedule: Q01DX001 (ip), vehicle: other
[23] = dose: 400.0 mg/kg/injection, schedule: Q01DX001 (ip), vehicle: other

Measured: T/C

O=C(O)C1OC1C(=O)O (configuration not stated)
inactive: [1] 101 % of control | dose: 75.0 mg/kg/injection, schedule: Q04DX003 (ip), vehicle: saline 100 % of control | [2] 103 % of control | dose: 150.0 mg/kg/injection, schedule: Q04DX003 (ip), vehicle: saline 98 % of control | dose: 300.0 mg/kg/injection, schedule: Q01DX009 (ip), vehicle: saline with Tween-80 95 % of control | dose: 300.0 mg/kg/injection, schedule: Q04DX003 (ip), vehicle: saline 100 % of control

BrCc1cc2ccccc2cc1CBr
inactive: [3] 98 % of control | [4] 96 % of control | [5] 100 % of control | dose: 50.0 mg/kg/injection, schedule: Q01DX009 (ip), vehicle: Klucel (hydroxypropylcellulose) (HPC) 93 % of control and 107 % of control | [6] 104 % of control | [7] 96 % of control

Cc1ccc(C(=O)O)cc1
inactive: [8] 90 % of control | [9] 88 % of control

O=c1scc(-c2ccccc2)s1
inactive: [10] 113 % of control | [11] 88 % of control | [12] 106 % of control

CC(=O)ON(C(C)=O)c1ccc(S(=O)(=O)c2ccc(N(OC(C)=O)C(C)=O)cc2)cc1
inactive: [13] 97 % of control | [14] 103 % of control | [15] 103 % of control

CCCCCCCCCCCC(=O)[O][Pb]([CH2]CCC)([CH2]CCC)[O]C(=O)CCCCCCCCCCC
inactive: dose: 6.25 mg/kg/injection, schedule: Q04DX002 (ip), vehicle: gum acacia 95 % of control | dose: 12.5 mg/kg/injection, schedule: Q04DX002 (ip), vehicle: gum acacia 92 % of control and 98 % of control | dose: 25.0 mg/kg/injection, schedule: Q04DX002 (ip), vehicle: gum acacia 88 % of control

C/C(=N/O)c1ccc(/C(C)=N/O)cc1
inactive: [1] 104 % of control | [7] 95 % of control | [2] 107 % of control | [9] 107 % of control | [16] 96 % of control | [17] 95 % of control

C=C1CCOC1=O
inactive: dose: 100.0 mg/kg/injection, schedule: Q04DX002 (ip), vehicle: saline 104 % of control | dose: 200.0 mg/kg/injection, schedule: Q04DX002 (ip), vehicle: saline 108 % of control | dose: 400.0 mg/kg/injection, schedule: Q04DX002 (ip), vehicle: saline 106 % of control

CCS(=O)(=O)N1CCC(C)CC1
inactive: dose: 100.0 mg/kg/injection, schedule: Q04DX002 (ip), vehicle: saline with Tween-80 96 % of control | dose: 200.0 mg/kg/injection, schedule: Q04DX002 (ip), vehicle: saline with Tween-80 101 % of control | dose: 400.0 mg/kg/injection, schedule: Q04DX002 (ip), vehicle: saline with Tween-80 103 % of control

C=C(C)C1(CC(C)C)C(=O)NC(=S)NC1=O
inactive: dose: 9.5 mg/kg/injection, schedule: Q01DX001 (ip), vehicle: other 100 % of control | dose: 19.0 mg/kg/injection, schedule: Q01DX001 (ip), vehicle: other 96 % of control | dose: 38.0 mg/kg/injection, schedule: Q01DX001 (ip), vehicle: other 96 % of control

O=c1ccnc([Se])[nH]1
inactive: dose: 12.5 mg/kg/injection, schedule: Q04DX003 (ip), vehicle: saline with Tween-80 99 % of control | [5] 105 % of control | [6] 101 % of control | [7] 92 % of control | [16] 111 % of control | [17] 101 % of control

OCc1ccccc1CN1CCCC1
inactive: dose: 100.0 mg/kg/injection, schedule: Q01DX001 (ip), vehicle: Klucel (hydroxypropylcellulose) (HPC) 94 % of control | dose: 200.0 mg/kg/injection, schedule: Q01DX001 (ip), vehicle: Klucel (hydroxypropylcellulose) (HPC) 96 % of control | dose: 400.0 mg/kg/injection, schedule: Q01DX001 (ip), vehicle: Klucel (hydroxypropylcellulose) (HPC) 97 % of control

CN1CCC=C(C(=O)N2c3ccccc3Sc3ccccc32)C1
inactive: dose: 25.0 mg/kg/injection, schedule: Q01DX009 (ip), vehicle: saline 88 % of control | dose: 25.0 mg/kg/injection, schedule: Q04DX003 (ip), vehicle: saline 97 % of control | dose: 50.0 mg/kg/injection, schedule: Q01DX009 (ip), vehicle: saline 96 % of control | dose: 50.0 mg/kg/injection, schedule: Q04DX003 (ip), vehicle: saline 96 % of control | dose: 100.0 mg/kg/injection, schedule: Q01DX009 (ip), vehicle: saline 102 % of control | [13] 96 % of control and 105 % of control

C=CCn1c(=O)n(CC=C)c(=O)n(CC=C)c1=O
inactive: dose: 100.0 mg/kg/injection, schedule: Q01DX001 (ip), vehicle: saline 108 % of control | dose: 100.0 mg/kg/injection, schedule: Q04DX003 (ip), vehicle: carboxymethylcellulose (CMC) 106 % of control | dose: 200.0 mg/kg/injection, schedule: Q01DX001 (ip), vehicle: saline 102 % of control | dose: 200.0 mg/kg/injection, schedule: Q04DX003 (ip), vehicle: carboxymethylcellulose (CMC) 92 % of control | dose: 400.0 mg/kg/injection, schedule: Q01DX001 (ip), vehicle: saline 104 % of control | dose: 400.0 mg/kg/injection, schedule: Q04DX003 (ip), vehicle: carboxymethylcellulose (CMC) 95 % of control

COc1ccc(NC(=O)NCc2ccc(C)cc2)cc1
inactive: [10] 104 % of control | [11] 104 % of control | [12] 96 % of control

COc1cc2c(cc1O)C(Cc1ccc(OC)c(OC)c1)N(C)CC2 (configuration not stated)
inactive: dose: 75.0 mg/kg/injection, schedule: Q01DX001 (ip), vehicle: other 93 % of control | dose: 150.0 mg/kg/injection, schedule: Q01DX001 (ip), vehicle: other 101 % of control

COc1ccc(C(C(N)=O)N2CCCC2)cc1 (configuration not stated)
inactive: [7] 102 % of control | [16] 96 % of control | [17] 96 % of control

CSc1cc2c(cc1N)Cc1cc(F)ccc1-2
inactive: [18] 98 % of control | [19] 98 % of control | [20] 95 % of control

COc1nc2ccccc2c2ccccc12
inactive: [21] 105 % of control | [22] 102 % of control | [23] 107 % of control

COC(=O)c1ccc(N(C)CCC(C)=O)cc1
inactive: [21] 97 % of control | [22] 95 % of control | [23] 106 % of control

C1CCC2C(C1)C2(N1CCCC1)N1CCCC1 (configuration not stated)
inactive: dose: 6.25 mg/kg/injection, schedule: Q01DX009 (ip), vehicle: Klucel (hydroxypropylcellulose) (HPC) 101 % of control | [3] 100 % of control | dose: 12.5 mg/kg/injection, schedule: Q04DX003 (ip), vehicle: Klucel (hydroxypropylcellulose) (HPC) 98 % of control | [4] 93 % of control and 92 % of control | dose: 25.0 mg/kg/injection, schedule: Q04DX003 (ip), vehicle: Klucel (hydroxypropylcellulose) (HPC) 98 % of control | dose: 50.0 mg/kg/injection, schedule: Q04DX003 (ip), vehicle: Klucel (hydroxypropylcellulose) (HPC) 94 % of control

CCOC(CN=Cc1ccccn1)OCC
inactive: [13] 97 % of control | [14] 91 % of control | [15] 90 % of control

Cc1cccc2c(Br)cccc12
inactive: [18] 97 % of control | [19] 95 % of control | [20] 93 % of control

Cc1noc2nc(Cl)cnc12
inactive: [8] 109 % of control | [7] 94 % of control | [9] 110 % of control | [16] 102 % of control | dose: 400.0 mg/kg/injection, schedule: Q01DX009 (ip), vehicle: saline with Tween-80 104 % of control | [17] 94 % of control

O=C1NC23CC=CCC12CCCCCC3 (configuration not stated)
inactive: dose: 100.0 mg/kg/injection, schedule: Q04DX002 (ip), vehicle: other 93 % of control | dose: 200.0 mg/kg/injection, schedule: Q04DX002 (ip), vehicle: other 90 % of control | dose: 400.0 mg/kg/injection, schedule: Q04DX002 (ip), vehicle: other 86 % of control

— PubChem BioAssay AID248 (DTP/NCI, 2004)
